Data reported in ChEMBL document CHEMBL1201862, “PubChem BioAssay data set” (2004).
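Test compounds were applied to cells in 96-well plates for 48 hours at 5 doses. Here, GI50 denotes the concentration required for 50% inhibition of growth.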 Active and inactive are the calls of the source. Rule as the data show it: active = GI50 up to about 1.1 µM and inactive = higher.

Columns and labels:
Experiment in all cases: NCI anticancer screen, dose series, 48 h
HCT-116 = tested on: HCT-116
K562 = tested on: K562
NCI-H460 = tested on: NCI-H460
NCI/ADR-RES = tested on: NCI/ADR-RES
OVCAR-4 = tested on: OVCAR-4
OVCAR-5 = tested on: OVCAR-5
RPMI-8226 = tested on: RPMI-8226
SF-295 = tested on: SF-295
SF-539 = tested on: SF-539
SK-MEL-2 = tested on: SK-MEL-2
SK-MEL-5 = tested on: SK-MEL-5
SK-OV-3 = tested on: SK-OV-3
SNB-75 = tested on: SNB-75
SW-620 = tested on: SW-620
U-251 = tested on: U-251
UO-31 = tested on: UO-31
MDA-MB-231 = tested on: MDA-MB-231
MDA-N = tested on: MDA-N
PC-3 = tested on: PC-3
Hs-578T = tested on: Hs-578T

Row | SMILES | GI50 (HCT-116) | GI50 (K562) | GI50 (NCI-H460) | GI50 (NCI/ADR-RES) | GI50 (OVCAR-4) | GI50 (OVCAR-5) | GI50 (RPMI-8226) | GI50 (SF-295) | GI50 (SF-539) | GI50 (SK-MEL-2) | GI50 (SK-MEL-5) | GI50 (SK-OV-3) | GI50 (SNB-75) | GI50 (SW-620) | GI50 (U-251) | GI50 (UO-31) | GI50 (MDA-MB-231) | GI50 (MDA-N) | GI50 (PC-3) | GI50 (Hs-578T)
1 | O=C1C=CC2OC(c3ccccc3)C(O)C2O1 (stereo unspecified) | 2.49 µM (inactive) | 3.37 µM (inactive) | 4.7 µM (inactive) | 2.94 µM (inactive) | 7.87 µM (inactive) | 9.38 µM (inactive) | 1.39 µM (inactive) | 7.71 µM (inactive) | 3.07 µM (inactive) | 2.75 µM (inactive) | 7.33 µM (inactive) | 13.8 µM (inactive) | 10.4 µM (inactive) | 2.17 µM (inactive) | 10.7 µM (inactive) | 10.2 µM (inactive) |  |  |  | 
2 | COC(=O)[C@@H](O)[C@](O)(CCC(C)C)C(=O)O[C@@H]1C(OC)=C[C@]23CCCN2CCc2cc4c(cc2[C@H]13)OCO4 | 0.407 µM (active) | 0.659 µM (active) | 0.325 µM (active) | 11.8 µM (inactive) | 1.06 µM (active) | 3.24 µM (inactive) | 1.34 µM (inactive) | 1.53 µM (inactive) | 0.673 µM (active) | 2.19 µM (inactive) | 1.48 µM (inactive) | 1.17 µM (inactive) | 1.62 µM (inactive) | 2.21 µM (inactive) | 0.869 µM (active) | 1.5 µM (inactive) |  |  |  | 
3 | CN1CCc2c1nc(-c1ccc([N+](=O)[O-])cc1)c1c2N(C)CC1 | 15.9 µM (inactive) | 46 µM (inactive) | > 100 µM (inactive) |  | > 100 µM (inactive) | > 100 µM (inactive) | 48 µM (inactive) | > 100 µM (inactive) | > 100 µM (inactive) | > 100 µM (inactive) | 97.3 µM (inactive) | > 100 µM (inactive) | > 100 µM (inactive) | > 100 µM (inactive) | > 100 µM (inactive) | 33.1 µM (inactive) |  |  |  | 
4 | CCOC(OCC)[C@@H]1C[C@@H]2N(O[C@H](OC3CCCC3(c3ccccc3)c3ccccc3)[C@H](OC(C)=O)[C@@]2(CC)Cc2ccc(OC)c(OC)c2)O1 (stereo partly specified) | > 100 µM (inactive) | > 100 µM (inactive) | > 100 µM (inactive) | > 100 µM (inactive) | > 100 µM (inactive) | > 100 µM (inactive) |  | > 100 µM (inactive) | > 100 µM (inactive) | > 100 µM (inactive) | > 100 µM (inactive) | > 100 µM (inactive) | > 100 µM (inactive) | > 100 µM (inactive) | > 100 µM (inactive) | > 100 µM (inactive) | > 100 µM (inactive) | > 100 µM (inactive) | > 100 µM (inactive) | 
5 | CCOC(=O)CCC(NC(=O)c1ccc(NCc2ccc3nc(OC)c(OC)nc3c2)c2ccccc12)C(=O)OCC (stereo unspecified) | > 100 µM (inactive) | > 100 µM (inactive) | > 100 µM (inactive) | > 100 µM (inactive) | 43.1 µM (inactive) | > 100 µM (inactive) |  | 36.2 µM (inactive) | 20.8 µM (inactive) | > 100 µM (inactive) | 58.1 µM (inactive) | 31 µM (inactive) | 38.8 µM (inactive) | > 100 µM (inactive) | 40.5 µM (inactive) | > 100 µM (inactive) | 71.1 µM (inactive) | > 100 µM (inactive) | 61.4 µM (inactive) | 
6 | Cc1cc(C)nc(NC(=S)Nc2ccc([N+](=O)[O-])cc2)c1 | > 100 µM (inactive) | 45.2 µM (inactive) | > 100 µM (inactive) | > 100 µM (inactive) | > 100 µM (inactive) |  | > 100 µM (inactive) |  | > 100 µM (inactive) | > 100 µM (inactive) | > 100 µM (inactive) |  | > 100 µM (inactive) | > 100 µM (inactive) | > 100 µM (inactive) | > 100 µM (inactive) | > 100 µM (inactive) |  | > 100 µM (inactive) | > 100 µM (inactive)
7 | CCCCN(CCCC)CC(O)c1cc(-c2ccc(C(F)(F)F)cc2)nc(-c2ccc(C(F)(F)F)cc2)c1 (stereo unspecified) | 61.8 µM (inactive) | 76.2 µM (inactive) | > 100 µM (inactive) | > 100 µM (inactive) | > 100 µM (inactive) | > 100 µM (inactive) | 39.9 µM (inactive) | 26.7 µM (inactive) | > 100 µM (inactive) | > 100 µM (inactive) |  | > 100 µM (inactive) | 13.8 µM (inactive) | > 100 µM (inactive) | > 100 µM (inactive) | 95.7 µM (inactive) | 15.7 µM (inactive) |  | 55 µM (inactive) | 
8 | CC(C)c1cc(C(C)C)c(Cl)c(Cl)c1O.CC(C)c1cc(Cl)c(O)c(C(C)C)c1Cl | 76.7 µM (inactive) | 16.9 µM (inactive) | 30 µM (inactive) | 32.8 µM (inactive) |  | 48.3 µM (inactive) | 20.4 µM (inactive) | 18.7 µM (inactive) | 20 µM (inactive) | 18.5 µM (inactive) | 0.063 µM (active) |  |  | 25.8 µM (inactive) | 34.7 µM (inactive) | 23.2 µM (inactive) | 20.1 µM (inactive) |  | 19.5 µM (inactive) | 16.6 µM (inactive)
9 | COc1ccc(-c2cc(-c3ccc(Nc4ccnc5cc(Cl)ccc45)cc3)nc(N)c2C#N)c2ccccc12 | > 100 µM (inactive) | > 100 µM (inactive) | > 100 µM (inactive) | > 100 µM (inactive) | > 100 µM (inactive) | > 100 µM (inactive) | > 100 µM (inactive) | > 100 µM (inactive) | > 100 µM (inactive) | > 100 µM (inactive) | > 100 µM (inactive) |  | > 100 µM (inactive) | > 100 µM (inactive) | > 100 µM (inactive) | > 100 µM (inactive) | > 100 µM (inactive) | > 100 µM (inactive) | > 100 µM (inactive) | 
10 | COc1ccc2c(c1)C/C(=C\c1ccc(O)c(OC)c1)C2=O |  | > 100 µM (inactive) | > 100 µM (inactive) | > 100 µM (inactive) | > 100 µM (inactive) | > 100 µM (inactive) | > 100 µM (inactive) |  | > 100 µM (inactive) |  | > 10 µM (inactive) | > 100 µM (inactive) | 46 µM (inactive) | > 100 µM (inactive) | > 100 µM (inactive) | > 100 µM (inactive) |  |  | > 100 µM (inactive) | > 100 µM (inactive)
11 | NC1CC(=O)c2sc(I)cc21 (stereo unspecified) | 78.9 µM (inactive) | 74 µM (inactive) | 69.8 µM (inactive) | > 100 µM (inactive) |  | > 100 µM (inactive) | 92.5 µM (inactive) |  | > 100 µM (inactive) | > 100 µM (inactive) | > 100 µM (inactive) | > 100 µM (inactive) | > 100 µM (inactive) | 53.6 µM (inactive) | > 100 µM (inactive) | > 100 µM (inactive) | > 100 µM (inactive) | > 100 µM (inactive) | > 100 µM (inactive) | 
12 | COc1ccc2nc3c(c(N)c2c1)C1CCC3C1(C)C (stereo unspecified) | 32.4 µM (inactive) | 41.7 µM (inactive) | 31.2 µM (inactive) | > 100 µM (inactive) | 47.6 µM (inactive) | 41 µM (inactive) | 23.5 µM (inactive) | 20.6 µM (inactive) | 38.2 µM (inactive) | 25.5 µM (inactive) | 12.5 µM (inactive) | 28.1 µM (inactive) | 29.6 µM (inactive) | 25.5 µM (inactive) | 38.5 µM (inactive) | 47.4 µM (inactive) | 24 µM (inactive) |  | 24.3 µM (inactive) | > 100 µM (inactive)
